Assay: Inhibition of PI3Kalpha in human PC3 cells expressing Akt1 S473D mutant assessed as phosphorylation of Akt Thr308 by immunoblotting

**Q.** For `COCCC(=O)N1CCN(c2ccc(Nc3ccnc4ccc(-c5cnc6ccccc6c5)cc34)cc2C(F)(F)F)CC1` [1-(4-(4-([3,6'-biquinolin]-4'-ylamino)-2-(trifluoromethyl)phenyl)piperazin-1-yl)-3-methoxypropan-1-one], which IC50 is on record?
**A.** > 300 nM
